Reference: US20180201592A1, “2-AMINO-1,3,4-THIADIAZINE AND 2-AMINO-1,3,4-OXADIAZINE BASED ANTIFUNGAL AGENTS” (F2G Limited, priority 2015, published 2018)
In brackets after ≈: the same amount, converted by molar mass. Like-named read-outs stand apart in the source and are kept apart here.

Experiments:
Aspergillus flavus = assay: Minimum inhibitory concentration, YAG medium; format: cell-based; conditions: banded MIC grade
Procedure, shortened: (§1)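 Twofold aqueous dilution series, prepared from a DMSO stock (5 mg/mL), were inoculated with Aspergillus spp. spores; incubation lasted 24 hrs at 35° C before OD 485 nm readings.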

Aspergillus niger = assay: Minimum inhibitory concentration, YAG medium; format: cell-based; conditions: banded MIC grade
Procedure, shortened: as §1

Aspergillus terreus = assay: Minimum inhibitory concentration, YAG medium; format: cell-based; conditions: banded MIC grade
Procedure, shortened: as §1

Aspergillus fumigatus = assay: Minimum inhibitory concentration, YAG medium; format: cell-based; conditions: banded MIC grade
Procedure, shortened: (§2)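 Growth was read as optical density at 485 nm after 24 hrs at 35° C, and the MIC taken as the lowest drug concentration cutting growth by >70% relative to drug-free wells. Plates held doubling dilutions (50-0.05 mg/L) with 1-2×10^4 cfu/mL spores in YAG medium.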

C. albicans = assay: Minimum inhibitory concentration, RPMI medium; format: cell-based; conditions: banded MIC grade; for MIC: Candida albicans, RPMI media
Procedure, shortened: (§3)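 Incubated at 35° C for 24-48 hrs in RPMI 1640 with twofold water dilutions of compound (from 5 mg/mL stock in DMSO); absorbance at 485 nm indicated growth.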

C. tropicalis = assay: Minimum inhibitory concentration, RPMI medium; format: cell-based; conditions: banded MIC grade
Procedure, shortened: as §3

C. parapsilosis = assay: Minimum inhibitory concentration, RPMI medium; format: cell-based; conditions: banded MIC grade; for MIC: Lodderomyces parapsilosis, RPMI media
Procedure, shortened: as §3

A. terreus 49 = assay: Minimum inhibitory concentration, YAG medium; format: cell-based, Aspergillus terreus; conditions: banded MIC grade
Procedure, shortened: as §1

A. fumigatus 210 = assay: Minimum inhibitory concentration, YAG medium; format: cell-based, Aspergillus fumigatus; conditions: banded MIC grade
Procedure, shortened: as §2

CCCCc1ccc(OCCCCCC2=NN=C(N)SC2)cc1
MIC grade, A. FLAVUS, YAG media (Aspergillus flavus): 2 (2: 1-5 mg/L) | MIC grade, A. NIGER, YAG media (Aspergillus niger): 3 (3: 0.2-1 mg/L) | MIC grade, A. TERREUS, YAG media (Aspergillus terreus): 2 (2: 1-5 mg/L) | MIC grade, A. FUMIGATUS, YAG media (Aspergillus fumigatus): 1 (1: ≥5 mg/L) | MIC grade, C. ALBICANS, RPMI media (C. albicans): 2 (2: 5-20 mg/L) | MIC grade, C. TROPICALIS, RPMI media (C. tropicalis): 2 (2: 5-20 mg/L) | MIC grade, C. PARAPSILOSIS, RPMI media (C. parapsilosis): 3 (3: 1-5 mg/L) | MIC grade, A. TERREUS 49, YAG media (A. terreus 49): 2 (2: 1-5 mg/L) | MIC grade, A. FUMIGATUS 210, YAG media (A. fumigatus 210): 2 (2: 1-5 mg/L)

NC1=NN=C(CCOc2ccc(-c3ccccc3)cc2)CS1
MIC grade, A. FLAVUS, YAG media (Aspergillus flavus): 2 (2: 1-5 mg/L) | MIC grade, A. NIGER, YAG media (Aspergillus niger): 2 (2: 1-5 mg/L) | MIC grade, A. TERREUS, YAG media (Aspergillus terreus): 2 (2: 1-5 mg/L) | MIC grade, A. FUMIGATUS, YAG media (Aspergillus fumigatus): 1 (1: ≥5 mg/L) | MIC grade, C. ALBICANS, RPMI media (C. albicans): 1 (1: ≥20 mg/L) | MIC grade, C. TROPICALIS, RPMI media (C. tropicalis): 1 (1: ≥20 mg/L) | MIC grade, C. PARAPSILOSIS, RPMI media (C. parapsilosis): 1 (1: ≥20 mg/L) | MIC grade, A. TERREUS 49, YAG media (A. terreus 49): 2 (2: 1-5 mg/L) | MIC grade, A. FUMIGATUS 210, YAG media (A. fumigatus 210): 1 (1: ≥5 mg/L)

CCC(=O)OCC1=NN=C(N)SC1
MIC grade, A. FLAVUS, YAG media (Aspergillus flavus): 3 (3: 0.2-1 mg/L) | MIC grade, A. NIGER, YAG media (Aspergillus niger): 3 (3: 0.2-1 mg/L) | MIC grade, A. TERREUS, YAG media (Aspergillus terreus): 3 (3: 0.2-1 mg/L) | MIC grade, A. FUMIGATUS, YAG media (Aspergillus fumigatus): 3 (3: 0.2-1 mg/L) | MIC grade, C. ALBICANS, RPMI media (C. albicans): 1 (1: ≥20 mg/L) | MIC grade, C. TROPICALIS, RPMI media (C. tropicalis): 2 (2: 5-20 mg/L) | MIC grade, C. PARAPSILOSIS, RPMI media (C. parapsilosis): 3 (3: 1-5 mg/L) | MIC grade, A. TERREUS 49, YAG media (A. terreus 49): 3 (3: 0.2-1 mg/L) | MIC grade, A. FUMIGATUS 210, YAG media (A. fumigatus 210): 3 (3: 0.2-1 mg/L)

COCCCCCN1N=C(N)SC=C1C [4-(5-methoxypentyl)-5-methyl-1,3,4-thiadiazin-2-amine]
MIC (Aspergillus flavus; Aspergillus flavus, YAG media): 1 to 5 µg/mL (≈ 4.36 to 21.8 µM) | MIC (Aspergillus niger; Aspergillus niger, YAG media): ≥ 5 µg/mL | MIC (Aspergillus terreus; Aspergillus terreus, YAG media): 1 to 5 µg/mL (≈ 4.36 to 21.8 µM) | MIC (Aspergillus fumigatus; Aspergillus fumigatus, YAG media): ≥ 5 µg/mL | MIC (C. albicans; read-out: MIC grade C. ALBICANS): ≥ 20 µg/mL | MIC (C. albicans; read-out: MIC grade, C. ALBICANS, RPMI media): ≥ 20 µg/mL | MIC (C. tropicalis; Candida tropicalis, RPMI media): ≥ 20 µg/mL | MIC (C. parapsilosis; read-out: MIC grade C. PARAPSILOSIS): ≥ 20 µg/mL | MIC (C. parapsilosis; read-out: MIC grade, C. PARAPSILOSIS, RPMI media): 5 to 20 µg/mL (≈ 21.8 to 87.2 µM) | MIC (A. terreus 49; Aspergillus terreus, 49, YAG media): 1 to 5 µg/mL (≈ 4.36 to 21.8 µM) | MIC (A. fumigatus 210; Aspergillus fumigatus, 210, YAG media): 1 to 5 µg/mL (≈ 4.36 to 21.8 µM)

Cc1ccc(COCCC2=NN=C(N)SC2)cc1
MIC grade, A. FLAVUS, YAG media (Aspergillus flavus): 3 (3: 0.2-1 mg/L) | MIC grade, A. NIGER, YAG media (Aspergillus niger): 4 (4: <0.2 mg/L) | MIC grade, A. TERREUS, YAG media (Aspergillus terreus): 4 (4: <0.2 mg/L) | MIC grade, A. FUMIGATUS, YAG media (Aspergillus fumigatus): 4 (4: <0.2 mg/L) | MIC grade, C. ALBICANS, RPMI media (C. albicans): 3 (3: 1-5 mg/L) | MIC grade, C. TROPICALIS, RPMI media (C. tropicalis): 2 (2: 5-20 mg/L) | MIC grade, C. PARAPSILOSIS, RPMI media (C. parapsilosis): 3 (3: 1-5 mg/L) | MIC grade, A. TERREUS 49, YAG media (A. terreus 49): 4 (4: <0.2 mg/L) | MIC grade, A. FUMIGATUS 210, YAG media (A. fumigatus 210): 4 (4: <0.2 mg/L)

NC1=NN=C(CCCCOc2ccccc2)CS1
MIC grade, A. FLAVUS, YAG media (Aspergillus flavus): 4 (4: <0.2 mg/L) | MIC grade, A. NIGER, YAG media (Aspergillus niger): 4 (4: <0.2 mg/L) | MIC grade, A. TERREUS, YAG media (Aspergillus terreus): 4 (4: <0.2 mg/L) | MIC grade, A. FUMIGATUS, YAG media (Aspergillus fumigatus): 3 (3: 0.2-1 mg/L) | MIC grade, C. ALBICANS, RPMI media (C. albicans): 4 (4: <1 mg/L) | MIC grade, C. TROPICALIS, RPMI media (C. tropicalis): 3 (3: 1-5 mg/L) | MIC grade, C. PARAPSILOSIS, RPMI media (C. parapsilosis): 4 (4: <1 mg/L) | MIC grade, A. TERREUS 49, YAG media (A. terreus 49): 4 (4: <0.2 mg/L) | MIC grade, A. FUMIGATUS 210, YAG media (A. fumigatus 210): 3 (3: 0.2-1 mg/L)

NC1=NN=C(CCCCCC(=O)O)CS1
MIC grade, A. FLAVUS, YAG media (Aspergillus flavus): 2 (2: 1-5 mg/L) | MIC grade, A. NIGER, YAG media (Aspergillus niger): 2 (2: 1-5 mg/L) | MIC grade, A. TERREUS, YAG media (Aspergillus terreus): 2 (2: 1-5 mg/L) | MIC grade, A. FUMIGATUS, YAG media (Aspergillus fumigatus): 2 (2: 1-5 mg/L) | MIC grade, C. ALBICANS, RPMI media (C. albicans): 1 (1: ≥20 mg/L) | MIC grade, C. TROPICALIS, RPMI media (C. tropicalis): 1 (1: ≥20 mg/L) | MIC grade, C. PARAPSILOSIS, RPMI media (C. parapsilosis): 1 (1: ≥20 mg/L) | MIC grade, A. TERREUS 49, YAG media (A. terreus 49): 2 (2: 1-5 mg/L) | MIC grade, A. FUMIGATUS 210, YAG media (A. fumigatus 210): 2 (2: 1-5 mg/L)

COCCC1=NN=C(N)SC1
MIC grade, A. FLAVUS, YAG media (Aspergillus flavus): 3 (3: 0.2-1 mg/L) | MIC grade, A. NIGER, YAG media (Aspergillus niger): 3 (3: 0.2-1 mg/L) | MIC grade, A. TERREUS, YAG media (Aspergillus terreus): 3 (3: 0.2-1 mg/L) | MIC grade, A. FUMIGATUS, YAG media (Aspergillus fumigatus): 3 (3: 0.2-1 mg/L) | MIC grade, C. ALBICANS, RPMI media (C. albicans): 1 (1: ≥20 mg/L) | MIC grade, C. TROPICALIS, RPMI media (C. tropicalis): 1 (1: ≥20 mg/L) | MIC grade, C. PARAPSILOSIS, RPMI media (C. parapsilosis): 2 (2: 5-20 mg/L) | MIC grade, A. TERREUS 49, YAG media (A. terreus 49): 3 (3: 0.2-1 mg/L) | MIC grade, A. FUMIGATUS 210, YAG media (A. fumigatus 210): 2 (2: 1-5 mg/L)
